The assay concerns the target T1, YEATS domain of YEATS2 (YEATS2 201-332) (Homo sapiens, UniProt Q9ULM3).
T1 sequence (Q9ULM3 201-332): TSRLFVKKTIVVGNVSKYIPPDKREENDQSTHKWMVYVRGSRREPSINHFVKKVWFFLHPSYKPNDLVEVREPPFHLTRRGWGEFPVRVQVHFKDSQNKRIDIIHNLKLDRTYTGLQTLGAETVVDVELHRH
Description: ITC binding of histone peptides to the YEATS domain of YEATS2.

As for “ARTKQT ARKST GGK(cr)APRKQLATKAA [H31-25K14cr]”, the “binding (in words)” value (ITC, 15°C, wild type YEATS2 201-332) is reported as “No binding”.

Broadly, the Kd is the equilibrium constant for the complex coming apart. Low readings indicate tighter binding, high ones weaker binding. Take `C/C=C/C(=O)NCCCC[C@H](NC(=O)[C@@H](NC(=O)[C@H](CCCNC(=N)N)NC(=O)[C@H](C)N)[C@@H](C)O)C(=O)N[C@@H](CCC(N)=O)C(=O)N[C@H](C(=O)N[C@@H](C)C(=O)N[C@@H](CCCNC(=N)N)C(=O)N[C@@H](CCCCN)C(=O)N[C@@H](CO)C(=O)N[C@H](C(=O)NCC(=O)NCC(=O)N[C@@H](CCCCN)C(=O)N[C@@H](C)C(=O)O)[C@@H](C)O)[C@@H](C)O` [H31-15K4cr]: the Kd worked out at 121 µM.

The values above are taken from article PMC4856769 (Cell Research, 2016).
